Reference: the supplement of paper PMC4862054

Columns and labels:
[1] = system: MDA-MB-453; details: 72 h
Summary of the method: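 For viability, cells received 2.5 µl CellTiter-Blue for 2 h at 37 °C and fluorescence was read at 560/590 nm. Before this, breast cancer cell lines in 20 µl suspension had been incubated for 72 h on 384-well plates pre-loaded with compound dissolved in 5 µl medium. EC50 was obtained from a percent-inhibition dose-response fit censored at the highest concentration, after normalisation of each plate to vehicle and a positive kill control; rows with a zero drug sensitivity score were discarded.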

[2] = system: CAL-51; experiment: normalised viability (% of control), CellTiter-Blue; higher = more viable cells (about 100 = DMSO control); details: incubation time: 72 h
Description: (§1)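 DSRT, CellTiter-Blue viability, 72 h incubation. Signal is normalised to DMSO and benzethonium chloride controls. Value is the normalised response at dose 8.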

[3] = system: HDQ-P1; experiment: as above; details: incubation time: 72 h
Description: as §1

[4] = system: MDA-MB-453; experiment: as above; details: incubation time: 72 h
Description: as §1

[5] = system: CAL-120; experiment: as above; details: incubation time: 72 h
Description: (§2)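 DSRT, CellTiter-Blue viability, 72 h incubation. Signal is normalised to DMSO and benzethonium chloride controls. Value is the normalised response at dose 3.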

[6] = system: CAL-85-1; experiment: as above; details: incubation time: 72 h
Description: as §2

[7] = system: BT-474; experiment: drug sensitivity score (DSS), CellTox Green (DSS (AUC-based score)); higher = stronger drug effect (viability inhibition or cytotoxicity); extreme values may be limits of the assay; details: incubation time: 72 h
Summary of the method: (§3)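 Normalisation on every plate relied on 0.1 % DMSO and a positive kill control. The plates, 384-well format, held compound at 5 concentrations 10-fold apart across a compound-specific 10,000-fold range, and breast cancer cell lines in 20 µl suspension were incubated on them for 72 h before CellTox Green and then CellTiter-Glo readings. The drug sensitivity score derives from the area under the fitted dose-response curve.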

[8] = system: BT-549; experiment: as above; details: incubation time: 72 h
Summary of the method: as §3

[9] = system: CAL-120; experiment: as above; details: incubation time: 72 h
Summary of the method: as §3

[10] = system: CAL-148; experiment: as above; details: incubation time: 72 h
Summary of the method: as §3

[11] = system: CAL-51; experiment: as above; details: incubation time: 72 h
Summary of the method: as §3

[12] = system: CAL-85-1; experiment: as above; details: incubation time: 72 h
Summary of the method: as §3

[13] = system: DU-4475; experiment: as above; details: incubation time: 72 h
Summary of the method: as §3

[14] = system: HCC1143; experiment: as above; details: incubation time: 72 h
Summary of the method: as §3

[15] = system: HCC1599; experiment: as above; details: incubation time: 72 h
Summary of the method: as §3

[16] = system: HCC1937; experiment: as above; details: incubation time: 72 h
Summary of the method: as §3

[17] = system: HDQ-P1; experiment: as above; details: incubation time: 72 h
Summary of the method: as §3

[18] = system: Hs578T; experiment: as above; details: incubation time: 72 h
Summary of the method: as §3

[19] = system: MCF-10A; experiment: as above; details: incubation time: 72 h
Summary of the method: as §3

[20] = system: MDA-MB-231; experiment: as above; details: incubation time: 72 h
Summary of the method: as §3

[21] = system: MDA-MB-436; experiment: as above; details: incubation time: 72 h
Summary of the method: as §3

[22] = system: MDA-MB-453; experiment: as above; details: incubation time: 72 h
Summary of the method: as §3

[23] = system: MDA-MB-468; experiment: as above; details: incubation time: 72 h
Summary of the method: as §3

[24] = system: MFM-223; experiment: as above; details: incubation time: 72 h
Summary of the method: as §3

Row | EC50, CellTiter-Blue viability [1] [nM] | Compound | normalised viability ([2]; 3000 nM) [%] | normalised viability ([3]; 3000 nM) [%] | normalised viability ([4]; 3000 nM) [%] | normalised viability ([5]; 100 nM) [%] | normalised viability ([6]; 10 nM) [%] | drug sensitivity score [7] | drug sensitivity score [8] | drug sensitivity score [9] | drug sensitivity score [10] | drug sensitivity score [11] | drug sensitivity score [12] | drug sensitivity score [13] | drug sensitivity score [14] | drug sensitivity score [15] | drug sensitivity score [16] | drug sensitivity score [17] | drug sensitivity score [18] | drug sensitivity score [19] | drug sensitivity score [20] | drug sensitivity score [21] | drug sensitivity score [22] | drug sensitivity score [23] | drug sensitivity score [24] | normalised viability ([2]; 300 nM) [%] | normalised viability ([3]; 300 nM) [%] | normalised viability ([4]; 300 nM) [%] | normalised viability ([5]; 10 nM) [%] | normalised viability ([6]; 1 nM) [%] | normalised viability ([2]; 1500 nM) [%] | normalised viability ([3]; 1500 nM) [%] | normalised viability ([4]; 1500 nM) [%] | normalised viability ([5]; 50 nM) [%] | normalised viability ([6]; 5 nM) [%] | normalised viability ([2]; 30000 nM) [%] | normalised viability ([3]; 30000 nM) [%] | normalised viability ([4]; 30000 nM) [%] | normalised viability ([5]; 1000 nM) [%] | normalised viability ([6]; 100 nM) [%]
1 | 2540 | CN1CCN(CCOc2cc(OC3CCOCC3)c3c(Nc4c(Cl)ccc5c4OCO5)ncnc3c2)CC1 [Saracatinib] | 45 | 20.3 | 60.9 | 87.7 | 93.9 | 1.96 | 0 | 0 | 0 | 6.5 | 6.93 | 0 | 0 | 0 | 0 | 2.22 | 0 | 0 | 0 | 9.13 | 0 | 0 | 0 |  |  |  |  |  |  |  |  |  |  |  |  |  |  | 
2 | 4240 | CN(C)C[C@@H]1CCn2cc(c3ccccc32)C2=C(C(=O)NC2=O)c2cn(c3ccccc23)CCO1 [Ruboxistaurin] | 70.4 | 74.2 | 74.2 | 126 | 117 | 17.2 | 2.34 | 0.954 | 10.6 | 9.21 | 7.2 | 0 | 0 | 0 | 1.71 | 2.84 |  | 0 | 7.98 | 5.62 | 4.68 | 6.81 | 0 |  |  |  |  |  |  |  |  |  |  |  |  |  |  | 
3 | 17.1 | COc1ccc(-c2ccc3c(N4CCOC[C@@H]4C)nc(N4CCOC[C@@H]4C)nc3n2)cc1CO [AZD8055] | 10.5 | 21.8 | 14.6 | 32.5 | 79.8 | 2.99 | 0 | 0 | 14.2 | 7.39 | 0.628 | 0 | 8.37 | 0 | 0 | 0 | 0 | 0 | 0 | 0 | 0 | 2.01 | 0 |  |  |  |  |  |  |  |  |  |  |  |  |  |  | 
4 | 3.57 | CC[C@]1(O)C[C@H]2CN(CCc3c([nH]c4ccccc34)[C@@](C(=O)OC)(c3cc4c(cc3OC)N(C=O)[C@H]3[C@@](O)(C(=O)OC)[C@H](OC(C)=O)[C@]5(CC)C=CCN6CC[C@]43[C@@H]65)C2)C1 [Vincristine] | 10.4 | 38.9 | 30.5 | 20 | 61.1 | 6.14 | 9.25 | 1.68 | 0 | 14.1 | 14.4 | 0 | 0 | 2.79 | 0 | 0 | 8.32 | 14.2 | 15.7 | 0 | 0 | 22.1 | 12.5 | 17.2 | 36.6 | 36 | 22.9 | 96.5 |  |  |  |  |  |  |  |  |  | 
5 |  | Nc1ncnc2c1c(COc1cccc(Cl)c1)nn2C1CCOCC1 |  |  |  |  |  | 0 | 0 | 0 | 0 | 0 | 0 | 0 | 0 | 0 | 0 | 0 | 0.27 | 0 | 0 | 0 | 0 | 0 | 0 |  |  |  |  |  |  |  |  |  |  |  |  |  |  | 
6 |  | COc1ccccc1S(=O)(=O)Nc1ccc2c(c1)CN(C)C(=O)N2 [PFI-1] |  |  |  |  |  | 0 | 0 | 0 | 0 | 0 | 0.65 | 0 | 0 | 0 | 0 | 0 | 0 | 0 | 0 | 0 | 0 | 0 | 0 |  |  |  |  |  |  |  |  |  |  |  |  |  |  | 
7 |  | CNNCc1ccc(C(=O)NC(C)C)cc1 [Procarbazine] | 98.8 | 127 | 102 | 106 | 97.8 | 0 | 0 | 0 | 0 | 0 | 1.2 | 0 | 0 | 0 | 1.67 | 0 | 0 | 0 | 0 | 0 |  | 3.72 | 0 |  |  |  |  |  |  |  |  |  |  |  |  |  |  | 
8 |  | Cn1c(=O)n(-c2ccc(C(C)(C)C#N)cc2)c2c3cc(-c4cnc5ccccc5c4)ccc3ncc21 [Dactolisib] |  |  |  |  |  | 0 | 0 | 0 | 11.7 | 0 | 2.63 | 0 | 0 | 0 | 7.09 | 0 | 0 | 0 | 0 | 0 | 0 | 0 | 2.01 |  |  |  |  |  |  |  |  |  |  |  |  |  |  | 
9 |  | CC(C)c1c(C(=O)Nc2ccccc2)c(-c2ccccc2)c(-c2ccc(F)cc2)n1CC[C@@H](O)C[C@@H](O)CC(=O)O [Atorvastatin] |  |  |  |  |  | 0 | 0 | 1.49 | 0 | 13.9 | 0 | 0 | 0 | 0 | 0 | 0 | 4.71 | 8.07 | 13.1 | 0 | 0.0639 | 0 | 0 |  |  |  |  |  |  |  |  |  |  |  |  |  |  | 
10 |  | CC(C)(C#N)c1cc(Cn2cncn2)cc(C(C)(C)C#N)c1 [Anastrozole] | 108 | 85.3 | 103 | 88.5 | 90.7 | 0 | 0 | 0 | 0 | 0 | 0 | 0 |  | 0 | 0 | 0 |  | 0 | 0 | 0 | 0.209 | 0 | 0 |  |  |  |  |  |  |  |  |  |  |  |  |  |  | 
11 |  | C[C@]12CC[C@H](O)CC1=CC[C@@H]1[C@@H]2CC[C@]2(C)C(c3cccnc3)=CC[C@@H]12 [Abiraterone] |  |  |  |  |  | 0 | 0 | 0 | 0 | 0 | 0 | 0 | 0 | 0 | 0 | 0 | 0 | 0 | 0 | 0 | 0 | 0 | 0 |  |  |  |  |  | 106 | 125 | 96 | 87.6 | 91.1 |  |  |  |  | 
12 | 8.31 | Cn1c(=O)n(-c2ccc(C(C)(C)C#N)cc2)c2c3cc(-c4cnc5ccccc5c4)ccc3ncc21 [NVP-BEZ235] |  |  |  |  |  |  |  |  |  |  |  |  |  |  |  |  |  |  |  |  |  |  |  | 12.4 | 26.5 | 12.6 | 57.4 | 110 |  |  |  |  |  |  |  |  |  | 
13 |  | Cc1cc2c(C(C)C)c(O)c(O)c(C=O)c2c(O)c1-c1c(C)cc2c(C(C)C)c(O)c(O)c(C=O)c2c1O [Gossypol] |  |  |  |  |  |  |  |  |  |  |  |  |  |  |  |  |  |  |  |  |  |  |  |  |  |  |  |  |  |  |  |  |  | 3.25 | 4.62 | 5.68 | 112 | 97.3
14 |  | NS(=O)(=O)OC[C@@H]1C[C@@H](n2ccc3c(N[C@H]4CCc5ccccc54)ncnc32)C[C@@H]1O [Pevonedistat] |  |  |  |  |  | 0 | 0 | 0 | 0 | 25.3 | 0 | 4.01 | 0 | 0.787 | 0 | 0 | 0.549 | 0 | 0 | 6.93 | 0 | 7.99 | 0 |  |  |  |  |  |  |  |  |  |  |  |  |  |  | 
15 |  | Nc1nc(OCc2cc(Br)cs2)c2[nH]cnc2n1 [Lomeguatrib] |  |  |  |  |  | 0 | 0 | 0 | 0 | 0 | 0 | 0 | 0 | 0 | 1.11 | 0 | 0 | 0 | 0 | 0 | 0 | 0 | 0 |  |  |  |  |  |  |  |  |  |  |  |  |  |  | 
16 |  | O=C(O)CCCc1ccc(N(CCCl)CCCl)cc1 [Chlorambucil] | 115 | 107 | 108 | 109 | 96 | 0 | 0 | 0 | 0 | 0 | 0 | 0 | 0 | 0 | 0 | 0 | 0 | 0 | 0 | 2.34 | 0 | 0 | 0 |  |  |  |  |  |  |  |  |  |  |  |  |  |  | 
